These are literature values, as cited in patent US20070213390A1, “HMGCoA reductase inhibitor-angiotensin converting enzyme inhibitor compounds” (pSivida Inc., priority 2005, published 2007).

For orientation: Km means the concentration of substrate that gives half-maximal velocity.

The data set addresses T1, HMGR (HMGCoA reductase) (Homo sapiens, UniProt P04035).
T1 sequence (P04035 426-888 limits assumed): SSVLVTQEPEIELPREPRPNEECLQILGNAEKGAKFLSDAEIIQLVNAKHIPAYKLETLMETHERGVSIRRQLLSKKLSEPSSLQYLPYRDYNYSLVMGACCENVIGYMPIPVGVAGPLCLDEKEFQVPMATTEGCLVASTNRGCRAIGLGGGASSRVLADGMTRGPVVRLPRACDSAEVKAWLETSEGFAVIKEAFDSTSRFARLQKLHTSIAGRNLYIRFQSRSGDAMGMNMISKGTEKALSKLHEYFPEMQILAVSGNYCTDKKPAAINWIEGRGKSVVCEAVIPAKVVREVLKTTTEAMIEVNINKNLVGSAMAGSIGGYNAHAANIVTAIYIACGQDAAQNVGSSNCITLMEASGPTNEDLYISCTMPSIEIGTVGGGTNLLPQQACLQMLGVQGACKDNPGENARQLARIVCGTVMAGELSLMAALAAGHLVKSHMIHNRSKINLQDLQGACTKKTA
As to conditions: substrate of HMGR; read-out: Michaelis constant, Km, for HMG-CoA.

Turning to `CC(O)(CC(=O)O)CC(=O)SCCNC(=O)CCNC(=O)[C@H](O)C(C)(C)COP(=O)(O)OP(=O)(O)OC[C@H]1O[C@@H](n2cnc3c(N)ncnc32)[C@H](O)[C@@H]1OP(=O)(O)O` (stereo partly shown) [HMG-CoA, 3-hydroxy-3-methylglutaryl CoA], the Km is 4 µM.
